Results: ChEMBL document CHEMBL1208667, “Permanent positive charge strongly influences DNA/RNA binding and antiproliferative activity of urea-phenanthridinium conjugates” (Eur J Med Chem, 2010)
Activity calls are given as the source filed them. The calls are words filed in the database; no cut-off is given here.

Tests used:
Type in all cases: functional, cell-based
Caco-2 [1] = assay: Cytotoxicity against human Caco-2 cells at 100 uM after 72 hrs by MTT assay
MIA PaCa-2 = assay: Cytotoxicity against human MIAPaCa2 cells at 0.1 to 100 uM after 72 hrs by MTT assay
Caco-2 [2] = assay: Cytotoxicity against human Caco-2 cells at 0.1 to 100 uM after 72 hrs by MTT assay
HEp-2 = assay: Cytotoxicity against human Hep2 cells at 0.1 to 100 uM after 72 hrs by MTT assay
HT-29 = assay: Cytotoxicity against human HT-29 cells at 0.1 to 100 uM after 72 hrs by MTT assay
HeLa = assay: Cytotoxicity against human HeLa cells at 0.1 to 100 uM after 72 hrs by MTT assay

Structure (SMILES) | Activity (Caco-2 [1]) | Activity (MIA PaCa-2) | Activity (Caco-2 [2]) | Activity (HEp-2) | Activity (HT-29) | Activity (HeLa)
Cc1nc2ccccc2c2ccc(NC(=O)NCCNC(=O)Nc3ccc4c(c3)c(C)nc3ccccc34)cc12 | inactive | – | – | – | – | –
Cc1nc2ccccc2c2ccc(NC(=O)NCCCCCCCCCNC(=O)Nc3ccc4c(c3)c(C)nc3ccccc34)cc12 | inactive | inactive | inactive | inactive | inactive | inactive
Cc1nc2ccccc2c2ccc(NC(=O)NCCCCCCNC(=O)Nc3ccc4c(c3)c(C)nc3ccccc34)cc12 | inactive | – | – | – | – | –
